In patent US20060069132A1, “Azolecarboxamide herbicides” (priority 2004, published 2006):

Legend:
[1] = system: velvetleaf; test: Test A pre-/postemergence herbicide test; format: in vivo, Abutilon theophrasti
Summary of the method: (§1)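 Pre: seeded sandy loam, directed soil spray, compound in non-phytotoxic solvent + surfactant. Post: 1–2-leaf plants (2–10 cm), sprayed to runoff. Greenhouse ~10 d; visual injury vs untreated, 0–100 scale.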

[2] = system: goosegrass; test: Test C pre-/postemergence herbicide test; format: in vivo, Eleusine indica
Summary of the method: (§2)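 Visual injury scores run from 0 (no effect) to 100 (complete control), assessed relative to untreated controls 12 to 14 days after treatment in the greenhouse. Chemicals were formulated in a non-phytotoxic solvent mixture with surfactant and applied to soil after planting or to emerged plants at the 1- to 4-leaf stage.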

[3] = system: yellow nutsedge; test: Test C pre-/postemergence herbicide test; format: in vivo, Cyperus esculentus
Summary of the method: as §2

[4] = system: cocklebur; test: Test C pre-/postemergence herbicide test; format: in vivo, Xanthium strumarium
Summary of the method: as §2

[5] = system: morningglory; test: Test C pre-/postemergence herbicide test; format: in vivo, Ipomoea coccinea; parameters: key to Plant response rating, Morningglory: 0 = no effect, 100 = complete control
Summary of the method: as §2

[6] = system: velvetleaf; test: Test C pre-/postemergence herbicide test; format: in vivo, Abutilon theophrasti
Summary of the method: as §2

[7] = system: corn; test: Test C pre-/postemergence herbicide test; format: in vivo, Zea mays
Summary of the method: as §2

[8] = system: redroot pigweed; test: Test A pre-/postemergence herbicide test; format: in vivo, Amaranthus retroflexus
Summary of the method: as §1

[9] = system: bermudagrass; test: Test C pre-/postemergence herbicide test; format: in vivo, Cynodon dactylon
Summary of the method: as §2

[10] = system: soybean; test: Test C pre-/postemergence herbicide test; format: in vivo, Glycine max
Summary of the method: as §2

[11] = system: kochia; test: Test C pre-/postemergence herbicide test; format: in vivo, Kochia scoparia
Summary of the method: as §2

[12] = system: woolly cupgrass; test: Test C pre-/postemergence herbicide test; format: in vivo, Eriochloa villosa
Summary of the method: as §2

[13] = system: giant foxtail; test: Test C pre-/postemergence herbicide test; format: in vivo, Setaria faberi
Summary of the method: as §2

[14] = Postemergence, 500 g ai/ha, 0 to 100 scale, 0 no effect, 100 complete control
[15] = Postemergence, 2000 g ai/ha, 0 to 100 scale, 0 no effect, 100 complete control
[16] = Preemergence, 500 g ai/ha, visual rating, 0 to 100 scale (0 no effect, 100 complete control)
[17] = Preemergence, 2000 g ai/ha, visual rating, 0 to 100 scale (0 no effect, 100 complete control)
[18] = 31 g ai/ha, preemergence, scale 0 to 100
[19] = 125 g ai/ha, scale 0 (no effect) to 100 (complete control), visual, 12 to 14 days, preemergence
[20] = Postemergence, 250 g ai/ha, scale 0 to 100, 0 no effect, 100 complete control
[21] = postemergence, 125 g ai/ha, scale 0 to 100
[22] = postemergence, 62 g ai/ha, scale 0 to 100
[23] = 250 g ai/ha, scale 0 to 100 (0 no effect, 100 complete control), visual, 12 to 14 days, preemergence
[24] = postemergence, 31 g ai/ha, scale 0 to 100

SMILES: C=Cn1nc(C(C)(C)C)cc1C(=O)Nc1cccc(C(C)=NO)c1 [Compound 114]
- Velvetleaf plant response rating [1, 14]: 20
- Plant response rating, Velvetleaf [1, 15]: 20
- Velvetleaf plant response rating [1, 16]: 35
- Velvetleaf plant response rating [1, 17]: 60
- Plant response rating, Goosegrass [2, 18]: 20
- Plant response rating (0 = no effect, 100 = complete control), Goosegrass ([2]; 62 g ai/ha, preemergence): 40
- Plant response rating, Goosegrass [2, 19]: 80
- Plant response rating, Goosegrass [2, 20]: 70
- Plant response rating, Goosegrass [2, 21]: 60
- Plant response rating, Goosegrass [2, 22]: 60
- Plant response rating, Nutsedge, Yellow [3, 18]: 0
- Plant response rating (0 = no effect, 100 = complete control), Nutsedge, Yellow ([3]; 62 g ai/ha, preemergence): 0
- Plant response rating, Nutsedge, Yellow [3, 19]: 0
- Plant response rating, Nutsedge, Yellow [3, 20]: 10
- Plant response rating, Nutsedge, Yellow [3, 21]: 0
- Plant response rating, Nutsedge, Yellow [3, 22]: 0
- Plant response rating, Cocklebur [4, 18]: 0
- Plant response rating (0 = no effect, 100 = complete control), Cocklebur ([4]; 62 g ai/ha, preemergence): 20
- Plant response rating, Cocklebur [4, 19]: 20
- Plant response rating, Cocklebur [4, 23]: 30
- Plant response rating, Cocklebur [4, 20]: 30
- Plant response rating, Cocklebur [4, 21]: 30
- Plant response rating, Cocklebur [4, 24]: 30
- Plant response rating, Cocklebur [4, 22]: 30
- Plant response rating, Morningglory [5, 18]: 40
- Plant response rating, Morningglory [5, 19]: 60
- Plant response rating, Morningglory [5, 21]: 30
- Plant response rating, Morningglory [5, 22]: 10
- Plant response rating, Velvetleaf [6, 18]: 0
- Plant response rating, Velvetleaf [6, 19]: 30
- Plant response rating, Velvetleaf [6, 20]: 80
- Plant response rating, Velvetleaf [6, 21]: 70
- Plant response rating, Velvetleaf [6, 22]: 60
- Plant response rating, Corn [7, 18]: 10
- Plant response rating (0 = no effect, 100 = complete control), Corn ([7]; 62 g ai/ha, preemergence): 10
- Plant response rating, Corn [7, 19]: 10
- Plant response rating, Corn [7, 23]: 10
- Plant response rating, Corn [7, 20]: 40
- Plant response rating, Corn [7, 21]: 30
- Plant response rating, Corn [7, 22]: 30
- Pigweed plant response rating [8, 14]: 85
- Plant response rating, Pigweed [8, 15]: 100
- Pigweed plant response rating [8, 16]: 85
- Pigweed plant response rating [8, 17]: 90
- Plant response rating, Bermudagrass [9, 18]: 10
- Plant response rating (0 = no effect, 100 = complete control), Bermudagrass ([9]; 62 g ai/ha, preemergence): 50
- Plant response rating, Bermudagrass [9, 19]: 90
- Plant response rating, Bermudagrass [9, 23]: 100
- Plant response rating, Bermudagrass [9, 20]: 90
- Plant response rating, Bermudagrass [9, 21]: 90
- Plant response rating, Bermudagrass [9, 24]: 20
- Plant response rating, Bermudagrass [9, 22]: 60
- Plant response rating, Soybean [10, 18]: 60
- Plant response rating (0 = no effect, 100 = complete control), Soybean ([10]; 62 g ai/ha, preemergence): 70
- Plant response rating, Soybean [10, 20]: 70
- Plant response rating, Soybean [10, 21]: 70
- Plant response rating, Soybean [10, 22]: 70
- Plant response rating, Kochia [11, 18]: 90
- Plant response rating (0 = no effect, 100 = complete control), Kochia ([11]; 62 g ai/ha, preemergence): 90
- Plant response rating, Kochia [11, 19]: 90
- Plant response rating, Kochia [11, 20]: 100
- Plant response rating, Kochia [11, 21]: 80
- Plant response rating, Kochia [11, 22]: 80
- Plant response rating, Cupgrass, Woolly [12, 18]: 0
- Plant response rating, Cupgrass, Woolly [12, 19]: 10
- Plant response rating, Cupgrass, Woolly [12, 23]: 30
- Plant response rating, Cupgrass, Woolly [12, 20]: 70
- Plant response rating, Cupgrass, Woolly [12, 21]: 70
- Plant response rating, Cupgrass, Woolly [12, 22]: 70
- Plant response rating, Foxtail, Giant [13, 18]: 20
- Plant response rating (0 = no effect, 100 = complete control), Foxtail, Giant ([13]; 62 g ai/ha, preemergence): 20
- Plant response rating, Foxtail, Giant [13, 19]: 30
- Plant response rating, Foxtail, Giant [13, 23]: 40
- Plant response rating, Foxtail, Giant [13, 20]: 10
- Plant response rating, Foxtail, Giant [13, 22]: 10
